For 88 compounds, melting point results are on record in a melting point compilation (Tetko et al.; mined from patent text by program, amines drawn as free bases though some values may be those of a salt).

As a reminder, the melting point is the temperature of the solid-liquid transition.

Consider `CCOC(=O)c1ccc(Nc2nc(=O)c3cccnc3s2)cc1`, for which the melting point was 230 to 233 °C.

`COC(=O)c1ccc(CN2CCC(=O)C(C(c3ccccc3)c3ccccc3)C2)cc1` (stereo not drawn) returned a melting point of 107 to 108 °C.

As to `NCCCNc1ccc(NCCCN)c2c1C(=O)c1c(O)ccc(O)c1C2=O`, the melting point is 115 to 130 °C.

In turn, `O=C(NCCNCCNC(=O)c1cccc2cc3ccccc3nc12)c1cccc2cc3ccccc3nc12` came in with a melting point of 182 to 184 °C.

As for `NNC1=Nc2ccc(I)cc2C(c2ccccc2F)=NC1`, the melting point lay in the range of 179 to 181 °C.

In the case of `COc1cc(N2C(=O)c3ccccc3C2=O)c2nc(Cl)cc(C)c2c1Oc1cccc(C(F)(F)F)c1`, the melting point lay within 225 to 227 °C.

The compound `O=C1CC(Nc2cc([N+](=O)[O-])ccc2Cl)=NN1c1c(Cl)cc(Cl)cc1Cl` returned a melting point of 278 to 280 °C.

Regarding `CCOC(=O)CCCOc1ccc(C(=O)Nc2ccccc2Oc2ccccc2-c2nnn[nH]2)cc1`, the melting point fell in the range of 162 to 164 °C.

As for `O=S(=O)(c1ccc(Cl)cc1)C(Cc1ccncc1)c1cc(F)ccc1F` (stereo not drawn), the melting point came to 129 °C.

`FC(F)(F)c1cccc(N=C=S)c1` gave a melting point of 133 °C.

`CCCCCCOc1c2c(c(-c3ccc4c(c3)OCO4)c3c4c(ccc13)OCO4)C(=O)NC2=O`: the melting point was 222 to 223 °C.

In turn, `CCOc1ccc2c(c1)C(=O)OC2C(Cl)(Cl)Cl` (stereo not drawn) showed a melting point of 112 to 114 °C.

Consider `CCCc1c(OCCOCCOc2ccc3ccc(OCC(=O)O)cc3c2C(C)=O)ccc(C(C)=O)c1O`, for which the melting point was in the range of 121 to 122 °C.

Compound `COC(=O)CC(=O)Cc1cc(F)c(F)cc1F` showed a melting point of 37 to 39 °C.

`CC(C)n1nc(-c2ncc(N)nc2-c2ccccc2)ccc1=O` came in with a melting point of 204 to 206 °C.

As to `Cc1c(NC(=O)CC(C)(C)C)c(C)c2c(c1-c1c[nH]cn1)OCC2c1ccc(C(C)C)cc1` (stereo not drawn), the melting point lay within 277 to 279 °C.

Consider `Oc1ccc2c(c1Cl)Sc1ccccc1N2`, for which the melting point was 110 °C.

In turn, `CC(=O)Nc1nc2n(n1)Cc1ccccc1-2` displayed a melting point of 258 to 259 °C.

For `CC(=O)[C@H]1CC[C@H](c2ccc(Cl)cc2)CC1`, the melting point was found to be 74.6 °C.

The compound `Cc1c(C(=O)O)ccc2c1OC(c1ccccc1)(c1ccccc1)O2` showed a melting point of 263 to 265 °C.

Compound `CCOC(=O)c1cnn(-c2ccc(Oc3ccc(C)cc3O)cc2)c1N` registered a melting point of 142 to 144 °C.

Compound `O=c1ccc(-c2ccc(Cl)c(C(F)(F)F)c2)n[nH]1` had a melting point of 249 to 251 °C.

Consider `Cc1cc2nc3ccc(C(=O)O)cn3c(=O)c2s1`, for which the melting point was in the range of 338 to 340 °C.

Consider `COc1ccc(Cl)cc1N1CCN(CCCNC(=O)c2c(-c3ccccc3)noc2C)CC1`, for which the melting point lay within 139 to 142 °C.

For `CC(C)Oc1ccc(CCCOc2ncccc2CC(=O)O)c(Oc2ncc(Cl)cc2Cl)c1`, the melting point lay within 84 to 85 °C.

On to `CCC1N=C(c2ccccc2F)c2c(ccc(N=C=O)c2Cl)N(C)C1=O` (stereo not drawn), for which the melting point fell in the range of 243 to 244 °C.

As to `O=C1c2ccccc2C(=O)N1c1ccc2ccc(F)nc2n1`, the melting point stood at 245 °C.

Consider `CCN(CC)C(=O)C(C)Cc1nc(-c2ccccc2)nc2ccccc12` (stereo not drawn), for which the melting point was determined as 93.5 °C.

On to `O=c1c2ccccc2ncn1-c1nnn[nH]1`, for which the melting point lay within 259 to 260 °C.

On to `Cc1cccc(CC(=O)O)c1OCCCc1cn(-c2ccc(C(F)(F)F)cn2)nc1C1CCCCC1`, for which the melting point was 184 to 185 °C.

Regarding `CCCOc1ccc(S(=O)(=O)NC[C@@H](C(=O)NO)N2CCN(S(C)(=O)=O)CC2)cc1`, the melting point stood at 137 °C.

Consider `COC(=O)C1(N(O)C(=O)Cc2c(C)cc(Cl)cc2C)CCN(OC)CC1`, for which the melting point was 228 to 231 °C.

Compound `CS(=O)(=O)c1ccc(-n2nc(C(F)(F)F)nc2-c2ccc(Br)cc2)nc1` gave a melting point of 143 to 145 °C.

The compound `O=c1c2c(Cc3ccccc3)n[nH]c2c2ccncc2n1-c1ccccc1` came in with a melting point of 303 to 307 °C.

For the compound `Cc1nnc(-c2ccccc2)c2nc(OCc3ncnn3C)c(C3CCCC3)n12`, the melting point came to 137 °C.

As for `Clc1cc(Cl)c2ocnc2c1`, the melting point was 98 to 99 °C.

For `CC(C)CN(CC(C)C)S(=O)(=O)N[C@@H](Cc1ccc(Oc2nccc3cnccc23)cc1)C(=O)O`, the melting point amounted to 88 °C.

Consider `Cc1ccccc1NC(=O)Nc1ccc(CNC(=O)OC(C)(C)C)cc1`, for which the melting point was 200 to 202 °C.

Compound `O=C1CCC(c2ccc3[nH]c(-c4ccc(-n5ccnc5)cc4)cc3c2)=NN1` came in with a melting point of 295 to 298 °C.

Regarding `CC(=O)c1nc(Cl)ccc1N`, the melting point was 108 to 110 °C.

As to `COC1Nc2c(OC(C)=O)cccc2C(=O)N2CCCC12` (stereo not drawn), the melting point is 147 to 150 °C.

For the compound `O=C(O)c1c(-c2ccccc2)c(-c2ccccc2)nn1-c1ccccc1`, the melting point is 190 °C.

`Cc1nnc2cc(-c3ccccn3)ccn12`: the melting point fell in the range of 239 to 241 °C.

`N#CCCn1cc(C#N)c([N+](=O)[O-])n1` showed a melting point of 137 to 139 °C.

Consider `Cc1ccc([C@H](CC(=O)O)NC(=O)Nc2c(O)c3ccccc3n(Cc3ccccc3Cl)c2=O)cc1`, for which the melting point lay in the range of 134 to 136 °C.

In turn, `COc1ccc(-c2nnn(-c3ccc(C(F)(F)F)cc3Cl)c2N)cc1` gave a melting point of 130 to 131 °C.

The compound `COC1(C=Cc2ccc(C=O)cc2)OOCCOO1` returned a melting point of 95 to 97 °C.

`COC(=O)COc1ccc(C(C)=O)c2ccccc12`: the melting point was 123 to 125 °C.

`NS(=O)(=O)c1c(CF)nsc1OCC(F)(F)F` gave a melting point of 70 to 73 °C.

Regarding `Cc1ccc2c3c(ccc2n1)OCC(CN1CCC(c2nc4ccccc4o2)CC1)O3` (stereo not drawn), the melting point lay within 128 to 130 °C.

`Cc1c(CC(=O)O)c2ccccc2c(=O)n1Cc1ccc(Cl)c(Cl)c1` came in with a melting point of 218 to 220 °C.

As to `COCCNCCOc1ccc(NC(=O)c2ccccc2NS(C)(=O)=O)cc1`, the melting point lay within 164 to 165 °C.

Regarding `CCCCCCCCCCCCCC[C@@H]1CO[C@@H](CO)C1` (relative stereo), the melting point lay within 27.1 to 27.7 °C.

As to `N#Cc1sc(-c2ccccc2)nc1N`, the melting point lay within 178 to 179 °C.

`COc1ccc2cccc(Cl)c2c1` came in with a melting point of 32 to 34 °C.

Compound `C1=C2NCCN2C(c2ccccc2)c2ccccc2C1` (stereo not drawn) showed a melting point of 200 to 201 °C.

Compound `CCCCC/C(=C/C=C/C(=O)Oc1ccc([N+](=O)[O-])cc1)c1cccc(F)c1` came in with a melting point of 50 to 51 °C.

Regarding `CCOC(=O)c1nn(-c2ccc(Br)cc2)c(=O)c(C#N)c1C`, the melting point fell in the range of 174 to 176 °C.

On to `CCc1noc(-c2cn(-c3ccccn3)cn2)n1`, for which the melting point was in the range of 162 to 163 °C.

Regarding `COc1ccc([C@H]2NC(=S)N[C@H]2c2ccc(OC)cc2)cc1`, the melting point lay within 226 to 227 °C.

`O=C1C(c2ccccc2)=C(c2ccccc2)C(=O)N1CCc1ccccc1` came in with a melting point of 164 to 165 °C.

In turn, `CCc1nc2c(N)nc3ccccc3c2n1CCCC#Cc1cccc(C(F)(F)F)c1` showed a melting point of 178 to 181 °C.

`CCc1nc2c(N)nc3ccccc3c2n1CCOCCNC(=O)NC1CCCCC1` registered a melting point of 198 to 200 °C.

`CN1CCN(c2cc(=O)c3ccc4ccccc4c3o2)CC1` came in with a melting point of 184 to 185 °C.

The compound `CC(COc1c(-c2ccccc2)c(=O)oc2c(-c3ccccc3)cccc12)CN1CCOCC1` (stereo not drawn) showed a melting point of 120 to 121 °C.

`NC1=CN(N)NN=C1c1cccc(Cl)c1Cl`: the melting point was 216 to 218 °C.

The compound `COC(=O)C1=C(C)NC(C)C(C(=O)OC)=C1c1cc(Cl)ccc1COCc1ccccc1` (stereo not drawn) returned a melting point of 156 to 158 °C.

`Cc1cc(-c2cc(O)c(SCCc3ccccc3)c(=O)o2)ccc1OCc1cccnc1` yielded a melting point of 149 to 151 °C.

The compound `CCCCc1nc(Cl)c(C(=O)OC(C)C)n1Cc1ccc2oc(-c3ccccc3-c3nnn[nH]3)c(Br)c2c1` showed a melting point of 105 to 106 °C.

For `COc1ccc(C(=O)Oc2ccc(O)cc2)cc1`, the melting point lay in the range of 162 to 165 °C.

As to `COC12CC(CN3CCC(c4c[nH]c5ccccc45)CC3)CN(C)C1Cc1c(Br)[nH]c3cccc2c13` (stereo not drawn), the melting point is 160 to 170 °C.

For `CCN(CC)CCN1c2cc(Cl)ccc2S[C@H]2[C@@H](OC(=O)c3ccccc3)[C@H](OC(=O)c3ccccc3)[C@@H](COC(=O)c3ccccc3)O[C@H]21`, the melting point is 124 to 126 °C.

`CCOC(=O)c1c(CN(C)c2ccccc2)nc2cc(OC)c(OC)cc2c1-c1ccc(OC)c(OC)c1` displayed a melting point of 194 to 196 °C.

The compound `CC(Oc1ncn(-c2ccc(Cl)c(Cl)c2)n1)C(=O)O` (stereo not drawn) registered a melting point of 222 to 224 °C.

The compound `O=C(O)c1c(F)c(OC(F)F)c(F)c(F)c1[N+](=O)[O-]` yielded a melting point of 77 to 80 °C.

In turn, `CCOC(=O)c1nc(-c2ccc([N+](=O)[O-])cc2)[nH]c1-c1cccc(OC)c1` showed a melting point of 194 to 196 °C.

On to `NC(=S)C(CN1CCOCC1)c1ccccn1` (stereo not drawn), for which the melting point was 102 to 104 °C.

On to `CN1CCN(c2ncccc2C#N)C(c2ccccc2)C1` (stereo not drawn), for which the melting point was 65.7 to 66.8 °C.

Regarding `CC(C)c1nc(C(C)C)c(CO)c(-c2ccc(F)cc2)c1/C=C/c1ccccc1`, the melting point fell in the range of 107 to 110 °C.

`N#Cc1ccc2c(c1)C(=C(Cl)Cl)OC(C(Cl)(Cl)Cl)O2` (stereo not drawn): the melting point lay within 125 to 126 °C.

The compound `CC1(C)CC(Nc2nccc3ccccc23)CC(C)(C)N1` displayed a melting point of 133 °C.

Regarding `CC12CCC3c4cc(O)c(O)cc4CCC3C1CCC2O` (stereo not drawn), the melting point was 181 to 183 °C.

The compound `Cc1ccc(C(=O)OCCO)cc1-n1c(C)cc(OCc2ccc(F)cc2CNC(=O)Nc2cc(C(C)(C)C)nn2-c2cccc(OCCO)c2)c(Cl)c1=O` had a melting point of 180 to 181 °C.

Consider `OC(c1cccnc1)c1ccc(Cl)cc1Cl` (stereo not drawn), for which the melting point was 108 to 111 °C.

`COc1ccc(C#Cc2ccccc2)cc1`: the melting point is 57 to 58 °C.

Take `COC(=O)c1oc2ccc(Cl)cc2c1-c1ccccc1C(F)(F)F`: the melting point lay in the range of 205 to 208 °C.

As to `CCOC1(OCC)C[C@@H](C(=O)O)[C@@H]1C(=O)O` (relative stereo), the melting point was 118 to 120 °C.

The compound `COC(=O)Cc1sc(=S)[nH]c1COc1ccccc1` registered a melting point of 138 °C.
